Results: patent US20230321278A1, “AAV VECTOR DELIVERY SYSTEMS” (President and Fellows of Harvard College, priority 2020, published 2023)
“Also recorded” adds a separate entry of the source.

Assays:
sympathetic nerve = assay: Sympathetic nerve ablation by intradermal injection of 6-OHDA; type: in vivo, mice
Description: The sympathetic nervous system is constantly active at a basal level to maintain body physiology. To explore if basal sympathetic nerve activity affects the other two cell types in this nerve-APM-HFSC tri-lineage unit, the sympathetic nerve in telogen skin was ablated through intradermal injection of 6-hydroxydopamine (6-OHDA, a selective neurotoxin for sympathetic nerves) (Kostrzewa and Jacobowitz, 1974), when HFSCs are quiescent. […] By P30, hair follicles reached full anagen throughout the control back skin, whereas hair follicles in the sympathectomized skin remained mostly in telogen (FIG. 1C). […]
Chemical ablation: 6-Hydroxydopamine hydrobromide (6-OHDA, Sigma 162957) solution was prepared freshly by dissolving 6-OHDA in 0.1% ascorbic acid (in 0.9% sterile NaCl) for intradermal injection. […] Skin was analyzed one week after ablation.
(§1) H&E stained sections were used for analysis. For quantification, anagen II and anagen III were considered as early anagen, anagen IV was mid anagen, and anagen V and anagen VI were full anagen. Hair cycle stages were determined using previously described criteria (Muller-Rover et al., 2001). Ten to twenty hair follicles were individually assessed and staged in each animal, and at least 4 different animals were used per condition. […] The percent of dorsal skin in anagen was quantified using Fiji. […]

HFSCs = assay: Adrenergic agonist topical application, anagen entry; type: in vivo, mice; details: 10 mg/kg body weight once a day for 10 days, extended 2nd telogen
Description: Next, the impact of elevated sympathetic tone on HFSC activation was explored. Sympathetic nerve terminals secrete the neurotransmitter norepinephrine, which binds to adrenergic receptors on target cells. To elevate the sympathetic tone, isoproterenol, a pan-adrenergic receptor agonist, was topically applied at the extended 2nd telogen. […] Loss of sympathetic nerve innervations makes HFSCs more dormant, whereas elevated sympathetic tone promotes HFSC activation.
as §1, with “The effects of cold exposure and adrenergic agonist treatment (isoproterenol and procaterol) on anagen entry were quantified by monitoring the change of hair regrowth as previously described (Fan et al., 2018; Sheen et al., 2015). The” for “The”

human HFSCs = assay: Colony formation assay (CFA); type: cell-based; details: 0.1 μM procaterol
Experimental: Human hair follicles were isolated from normal scalp tissues. To isolate hair follicle stem cells (HFSCs), hair follicles were dissected, and subcutaneous fat and connective tissues were carefully removed with a scalpel. The lower hair bulb and upper epithelial layer were removed as previously described (Oshima et al., 2001; Rochat et al., 1994). For HFSC isolation, hair follicles were incubated in 1.25 U/mL dispase (Gibco) and 0.5 mg/mL collagenase I (Sigma-Aldrich) solution at 37° C. for 30 minutes, following which the mesenchymal sheath was carefully removed with forceps. To obtain a single cell HFSC suspension, tissue was digested with 0.05% trypsin/EDTA solution (Gibco) for 1 h at 37° C., and cells were filtered through a sterile 40[…] cell strainer (BD Biosciences). Single cell suspensions were then centrifuged at 1300 rpm for 10 minutes and plated on mitomycin C (Cayman) treated J2 feeders at a cell density of 5000 cells/well in a 12-well culture plate (Falcon) in E media supplemented with EGF and additives as described in (Mou et al., 2016; Nowak and Fuchs, 2009). After 48 hours, 0.1 μM procaterol (Sigma) was added (freshly prepared). Medium was changed every 2 days. On day 10, plates were fixed with 4% PFA and stained with Rhodamine B (Sigma). […] CFA quantification was done using Fiji.

Structure (SMILES)	ablation of the sympathetic nerve in skin (sympathetic nerve; intradermal injection, telogen skin)	HFSC activation and anagen entry (sympathetic nerve; sympathectomy by intradermal 6-OHDA)	anagen entry (back skin hair regrowth) (HFSCs)	growth of cultured human HFSCs (area covered by colonies) (human HFSCs)
NCCc1cc(O)c(O)cc1O [6-OHDA, 6-hydroxydopamine]	ablated the sympathetic nerve efficiently	substantial delay in HFSC activation and anagen entry		
CC(C)NCC(O)c1ccc(O)c(O)c1 (centres unmarked) [isoproterenol]			entered anagen earlier; also recorded: precocious anagen entry	
CCC(NC(C)C)C(O)c1ccc(O)c2[nH]c(=O)ccc12 (centres unmarked) [procaterol]			accelerated anagen entry; also recorded: premature anagen entry	promoted their growth
